Data published in patent US4552843A, “Process for producing an acidic polycyclic ether antibiotic by cultivation of a novel strain of Streptomyces endus subspecies aureus” (Pfizer Inc., priority 1984, dated 1985).

How the values were obtained:
[1] = test system: Eimeria tenella; assay: efficacy against coccidial infections in chickens (Table II); format: in vivo; details: for Ratio: lesion score treated / infected control; for % Weight Gain / Average Degree of Infection: chicks; for Average Degree of Infection: lesion score 0 to 4, six days
Experimental: (§1) Efficacy data for Antibiotic CP-63,517 and its salts against coccidial infections in chickens was obtained in the following fashion. Groups of 3-5 ten-day old SPF white leghorn cockerel chicks were fed a mash diet containing Antibiotic CP-63,517, its sodium and/or potassium salt, or the known agents Monensin or Stenorol uniformly dispersed therein. After being on this ration for 24 hours each chick was inoculated per os with oocysts of the particular species of Eimeria being tested. Other groups of 3-5 ten-day old chicks were fed a similar mash diet free of any test compound. They were also infected after 24 hours and served as infected controls. Yet another group of 3-5 ten-day old chicks were fed the mash diet free of any test compound and were not infected with coccidia. These served as normal controls. The results of treatment were evaluated after five days in the case of E. acervulina, and six days for other challenges.
(§2) ^1 The criteria used to measure anticoccidial activity consisted of
(§3) lesion scores of 0 to 4 for Eimeria tenella after J. E. Lynch, "A New
(§4) Method for the Primary Evaluation of Anticoccidial Activity", Am. J. Vet.
(§5) modification of the scoring system devised by J. Johnson and W. H. Reid,
(§6) "Anticoccidial Drugs. Lesion Scoring Techniques in Battery and Floor Pen
(§7) Experiments in Chicks", Exp. Parasit. 28: 30-36 (1970). A constant ratio
(§8) was established by dividing the lesion score of each treated group by the
(§9) lesion score of the infected control.

[2] = test system: Eimeria acervulina; assay: as above; format: in vivo; details: for Ratio: lesion score treated / infected control; for % Weight Gain / Average Degree of Infection: chicks; for Average Degree of Infection: lesion score 0 to 3, five days
Experimental: as §1, §2, §3, §4, §5, §6, §7, §8, §9

[3] = test system: coccidial infections; assay: activity against coccidial infections in poultry; details: in vivo
Experimental: as §1

[4] = test system: Gram-positive microorganisms; assay: inhibitory action against growth of Gram-positive microorganisms; format: cell-based; details: in vitro
Experimental: In Table I, below, the results of in vitro MIC tests are summarized. For this test each organism is inoculated in a series of test tubes of CP-63,517 to determine the minimal concentration of the antibiotic in mcg/ml which inhibits the growth of the organism over a period of 24 hours (MIC).

[5] = 10 ppm in diet, replicate (in parentheses)
[6] = 20 ppm in diet, replicate (in parentheses)
[7] = 30 ppm in diet, replicate (in parentheses)
[8] = 40 ppm in diet, replicate (in parentheses)
[9] = diet of chickens at levels of 5 to 40 ppm

COC1CCC(OC2CC3(CC(O)C(C)C(C(C)C=C(C)C(=O)C(C)CC(C)C(=O)O)O3)OC2(C)C2CCC(C)C3(OC(C4OC(O)(CO)C(C)CC4C)CC3C)O2)OC1C (stereo not shown) [CP-63,517] showed a Ratio ([1]; 5 ppm in diet) of 0.3, a Ratio ([1]; 10 ppm in diet) of 0.0 and a Ratio [1, 5] of 0.3. The Ratio ([1]; 20 ppm in diet) was 0.0, the Ratio [1, 6] was 0.0 and the Ratio ([1]; 30 ppm in diet) was 0.0. It also gave a Ratio [1, 7] of 0.0, a Ratio ([1]; 40 ppm in diet) of 0.0 and a Ratio [1, 8] of 0.0. For the same compound, the “% Weight Gain” value ([1]; 5 ppm in diet) was 63%, the “Average Degree of Infection” value ([1]; 5 ppm in diet) was 1.0 and the “% Weight Gain” value ([1]; 10 ppm in diet) was 36%. The “Average Degree of Infection” value ([1]; 10 ppm in diet) was 0.0, the “Average Degree of Infection” value [1, 5] was 1.0 and the “% Weight Gain” value [1, 5] was 66%. The “% Weight Gain” value ([1]; 20 ppm in diet) was 14%, the “Average Degree of Infection” value ([1]; 20 ppm in diet) was 0.0 and the “Average Degree of Infection” value [1, 6] was 0.0. For the same compound, the “% Weight Gain” value [1, 6] was 26%, the “% Weight Gain” value ([1]; 30 ppm in diet) was 0% and the “Average Degree of Infection” value ([1]; 30 ppm in diet) was 0.0. For the same compound, the “Average Degree of Infection” value [1, 7] was 0.0, the “% Weight Gain” value [1, 7] was 23% and the “% Weight Gain” value ([1]; 40 ppm in diet) was 0%. For the same compound, the “Average Degree of Infection” value ([1]; 40 ppm in diet) was 0.0, the “Average Degree of Infection” value [1, 8] was 0.0 and the “% Weight Gain” value [1, 8] was 2%. The “control of infections due to Eimeria tenella” value [1, 9] was “effective in controlling infections”, the Ratio ([2]; 5 ppm in diet) was 1.10 and the Ratio ([2]; 10 ppm in diet) was 0.50. It also gave a Ratio [2, 5] of 0.30, a Ratio ([2]; 20 ppm in diet) of 0.40 and a Ratio [2, 6] of 0.20. The Ratio ([2]; 30 ppm in diet) was 0.20, the Ratio [2, 7] was 0.30 and the Ratio ([2]; 40 ppm in diet) was 0.60. For the same compound, the Ratio [2, 8] was 0.60, the “% Weight Gain” value ([2]; 5 ppm in diet) was 11% and the “Average Degree of Infection” value ([2]; 5 ppm in diet) was 2.2. The “% Weight Gain” value ([2]; 10 ppm in diet) was 40%, the “Average Degree of Infection” value ([2]; 10 ppm in diet) was 1.0 and the “Average Degree of Infection” value [2, 5] was 0.6. The “% Weight Gain” value [2, 5] was 0%, the “% Weight Gain” value ([2]; 20 ppm in diet) was 30% and the “Average Degree of Infection” value ([2]; 20 ppm in diet) was 0.8. The “Average Degree of Infection” value [2, 6] was 0.4, the “% Weight Gain” value [2, 6] was 60% and the “% Weight Gain” value ([2]; 30 ppm in diet) was 0%. The “Average Degree of Infection” value ([2]; 30 ppm in diet) was 0.4, the “Average Degree of Infection” value [2, 7] was 0.6 and the “% Weight Gain” value [2, 7] was 0%. For the same compound, the “% Weight Gain” value ([2]; 40 ppm in diet) was 0%, the “Average Degree of Infection” value ([2]; 40 ppm in diet) was 1.2 and the “Average Degree of Infection” value [2, 8] was 1.2. For the same compound, the “% Weight Gain” value [2, 8] was 0%, the “control of infections due to E. acervulina” value [2, 9] was “effective in controlling infections” and the “activity against coccidial infections in poultry” value [3] was “excellent activity”. The “antibacterial / growth inhibitory activity” value [4] was “exhibits inhibitory action against the growth of a number of Gram-positive microorganisms”.
